Where two headings read alike, the source gives them in different places.
Assays:
pLai RLuc reporter virus = experiment: microbe, parasite or virus in culture; type: cell-based, HIV
Summary of the method: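 MT-4 cells pre-infected 2 h at 37 °C with pLai RLuc virus, then exposed to 1:3 serial dilutions of compound in RPMI/10% FBS with or without 50% human serum for 72 h at 37 °C. Renilla luminescence read-out; serum shift = EC50(HS/CCM)/EC50(CCM).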

HIV-1 (IIIB) = experiment: Antiviral assay in MT-4 cells (HIV MT-4 antiviral assay); type: cell-based; settings: HIV-1 (IIIB) in MT-4 cells, 5 days incubation
Summary of the method: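 MT-4 cells infected with HIV-1 IIIB (1:250 diluted stock) and exposed to 1:3 serially diluted compound in RPMI with 10% FBS. Viability read by CellTiter-Glo luminescence after 5 days at 37° C; mock-infected cells and 5 μM AZT as controls.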

uninfected MT-4 cells = experiment: Cytotoxicity assay in MT-4 cells; type: cell-based, human; settings: uninfected MT-4 cells, 5 days incubation
Summary of the method: (§1)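 Infected MT-4 cells (HIV-1 IIIB, fresh 1:250 dilution of concentrated stock) or mock-infected cells exposed to compounds for 5 days at 37 °C. Viability by CellTiter-Glo luminescence; 5 μM AZT positive control, no-drug negative control. Uninfected cells used for cytotoxicity, with 10 μM puromycin as base-level cytotoxicity control.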

[1] = Cytotoxicity assay in MT-4 cells; type: cell-based, human; settings: human, uninfected MT-4 cells, 5 days incubation; read-out: CC50
Summary of the method: as §1

[2] = Human immunodeficiency virus 1, 72 h, read-out: Antiviral Serum Shift RLuc 50% HS, HS/CCM (RPMI media, 10% FBS, 50% HS, 1% P/S), 72-h incubation
[3] = Human immunodeficiency virus 1, 72 h, read-out: Antiviral Serum Shift RLuc CCM, CCM (RPMI media, 10% FBS, 1% P/S), 72-h incubation
[4] = read-out: Antiviral Serum Shift RLuc 50% HS, HS/CCM (RPMI media, 10% FBS, 50% HS, 1% P/S), 72-h incubation
[5] = read-out: Antiviral Serum Shift RLuc CCM, CCM (RPMI media, 10% FBS, 1% P/S), 72-h incubation
[6] = CCM (RPMI media, 10% FBS, 1% P/S), 72-h incubation, read-out: Antiviral Serum Shift RLuc CCM
[7] = HS/CCM (RPMI media, 10% FBS, 50% HS, 1% P/S), 72-h incubation, read-out: Antiviral Serum Shift RLuc 50% HS
[8] = Human immunodeficiency virus 1, IIIB, MT4, 120 h, read-out: EC50

Compound | EC50 (pLai RLuc reporter virus; [2]) [nM] | EC50 (pLai RLuc reporter virus; [3]) [nM] | CC50 (uninfected MT-4 cells) [nM] | EC50 (pLai RLuc reporter virus; [4]) [nM] | EC50 (pLai RLuc reporter virus; [5]) [nM] | EC50 (HIV-1 (IIIB); read-out: EC50) [nM] | further results
O=C(NCc1ccc(F)cc1F)c1cn2c(c(O)c1=O)C(=O)N1CC2CCc2cc(F)ccc21 (single isomer, unassigned) [Example 55-2] | 1.32 | 0.312 | 7330 |  |  |  | EC50 (HIV-1 (IIIB)): 1.8 nM
O=C(NCc1c(F)cc(F)cc1F)c1cn2c(c(O)c1=O)C(=O)N1CCCC(CF)C2C1 (single isomer, unassigned) [Example 194-4, 6-(fluoromethyl)-12-hydroxy-1,11-dioxo-N-(2,4,6-trifluorobenzyl)-1,4,5,6,7,11-hexahydro-3H-2,7-methanopyrido[1,2-a][1,4]diazonine-10-carboxamide] |  |  | 11300 | 3.48 | 0.397 | 1.75 | 
O=C(NCc1ccc(F)cc1F)c1cn2c(c(O)c1=O)C(=O)N1C[C@H](F)CC[C@H]2C1 (single isomer, unassigned) [Example 53-1] |  | 0.541 | 13200 | 6.13 |  | 2.13 | 
O=C(NCc1ccc(F)cc1F)c1cn2c(c(O)c1=O)C(=O)N1CC2CCc2cc(F)c(F)cc21 (single isomer, unassigned) [Example 50-1] | 0.948 | 0.265 | > 13500 |  |  |  | EC50 (HIV-1 (IIIB)): 1.39 nM
(7R,13R)—N-(2,4-difluorobenzyl)-12-hydroxy-13-methyl-1,11-dioxo-1,4,5,6,7,11-hexahydro-3H-2,7-methanopyrido[1,2-a][1,4]diazonine-10-carboxamide [Example 7] |  |  | 25400 |  |  | 19.9 | 
O=C(NCc1c(F)cc(F)cc1F)c1cn2c(c(O)c1=O)C(=O)N1CCCC(CF)C2C1 (single isomer, unassigned) [Example 194-3, 6-(fluoromethyl)-12-hydroxy-1,11-dioxo-N-(2,4,6-trifluorobenzyl)-1,4,5,6,7,11-hexahydro-3H-2,7-methanopyrido[1,2-a][1,4]diazonine-10-carboxamide] |  |  | 11500 | 139 | 0.554 | 1.28 | 
CC[C@]12CCCCN(C1)C(=O)c1c(O)c(=O)c(C(=O)NCc3ccc(F)cc3F)cn12 [Example 134-1, (7S)—N-(2,4-difluorobenzyl)-7-ethyl-12-hydroxy-1,11-dioxo-1,4,5,6,7,11-hexahydro-3H-27-methanopyrido[1,2-a][1,4]diazonine-10-carboxamide] |  |  | 16200 |  |  | 3.29 | 
O=C(NCc1ccc(F)cc1F)c1cn2c(c(O)c1=O)C(=O)N1CC2CCc2cc(F)c(F)cc21 (single isomer, unassigned) [Example 50-2] |  |  | 32300 |  |  |  | EC50 (HIV-1 (IIIB)): 32.5 nM
O=C(NCc1ccc(F)cc1F)c1cn2c(c(O)c1=O)C(=O)N1CCc3ccccc3[C@@H]2C1 [Example 64-1, (13R)—N-(2,4-difluorobenzyl)-4-hydroxy-3,5-dioxo-3,5,8,13-tetrahydro-7H-6,13-methanobenzo[g]pyrido[1,2-a][1,4]diazonine-2-carboxamide] | 3.31 | 0.319 | 12300 |  |  |  | CC50 at 5 days [1]: 14800 nM
O=C(NCc1c(F)cc(F)cc1F)c1cn2c(c(O)c1=O)C(=O)N1C[C@@H]2CCC[C@@H]1CF [Example 180, (3R,7S)-3-(fluoromethyl)-12-hydroxy-1,11-dioxo-N-(2,4,6-trifluorobenzyl)-1,4,5,6,7,11-hexahydro-3H-2,7-methanopyrido[1,2-a][1,4]diazonine-10-carboxamide] |  |  | 10400 | 13.5 | 0.32 | 1.21 | 
CC[C@@]12CCCCN(C1)C(=O)c1c(O)c(=O)c(C(=O)NCc3ccc(F)cc3F)cn12 [Example 134-2, (7R)—N-(2,4-difluorobenzyl)-7-ethyl-12-hydroxy-1,11-dioxo-1,4,5,6,7,11-hexahydro-3H-27-methanopyrido[1,2-a][1,4]diazonine-10-carboxamide] |  |  | 10600 |  |  | 5.7 | 
CC1CCCN2CC1n1cc(C(=O)NCc3ccc(F)cc3F)c(=O)c(O)c1C2=O (stereo not shown) [Example 17-2b, N-(2,4-difluorobenzyl)-12-hydroxy-6-methyl-1,11-dioxo-1,4,5,6,7,11-hexahydro-3H-2,7-methanopyrido[1,2-a][1,4]diazonine-10-carboxamide] |  |  | 11000 | 101 | 0.31 | 1.2 | 
O=C(NCc1c(F)cc(F)cc1F)c1cn2c(c(O)c1=O)C(=O)N1CC2CCc2ccccc21 (single isomer, unassigned) [Example 38-2] |  |  | 12800 |  |  | 0.93 | 
O=C(NCc1c(F)cc(F)cc1F)c1cn2c(c(O)c1=O)C(=O)N1CCCC(CF)C2C1 (single isomer, unassigned) [Example 194-2, 6-(fluoromethyl)-12-hydroxy-1,11-dioxo-N-(2,4,6-trifluorobenzyl)-1,4,5,6,7,11-hexahydro-3H-2,7-methanopyrido[1,2-a][1,4]diazonine-10-carboxamide] |  |  | 10500 | 2.99 | 0.378 | 1.5 | 
O=C(NCc1ccc(F)cc1F)c1cn2c(c(O)c1=O)C(=O)N1C[C@H](F)CC[C@H]2C1 (single isomer, unassigned) [Example 53-4] |  |  | > 44400 | 18.3 | 0.696 | 4.72 | 
(3S,7S)-5-fluoro-12-hydroxy-3-methyl-1,11-dioxo-N-(2,4,6-trifluorobenzyl)-1,4,7,11-tetrahydro-3H-2,7-methanopyrido[1,2-a][1,4]diazonine-10-carboxamide [Example 118-1] |  |  | 11500 |  |  | 0.79 | EC50 (pLai RLuc reporter virus; [6]): 0.296 nM; EC50 (pLai RLuc reporter virus; [7]): 0.881 nM
(3S,7S)-5-fluoro-12-hydroxy-3-methyl-1,11-dioxo-N-(2,4,6-trifluorobenzyl)-1,6,7,11-tetrahydro-3H-2,7-methanopyrido[1,2-a][1,4]diazonine-10-carboxamide [Example 118-2] |  |  | 11600 |  |  | 1.17 | EC50 (pLai RLuc reporter virus; [6]): 0.249 nM; EC50 (pLai RLuc reporter virus; [7]): 0.507 nM
O=C(NCc1ccc(F)cc1F)c1cn2c(c(O)c1=O)C(=O)N1C[C@@H]2CCC[C@@H]1CF [Example 181, (3R,7S)—N-(2,4-difluorobenzyl)-3-(fluoromethyl)-12-hydroxy-1,11-dioxo-1,4,5,6,7,11-hexahydro-3H-2,7-methanopyrido[1,2-a][1,4]diazonine-10-carboxamide] |  |  | 9710 | 7.65 | 0.385 | 1.08 | 
C[C@H]1OC[C@H](C)N2C[C@H]1n1cc(C(=O)NCc3c(F)cc(F)cc3F)c(=O)c(O)c1C2=O [Example 195, (3S,6R,7R)-12-hydroxy-3,6-dimethyl-1,11-dioxo-N-(2,4,6-trifluorobenzyl)-1,3,4,6,7,11-hexahydro-2,7-methanopyrido[1,2-d][1,4,7]oxadiazonine-10-carboxamide] | 10.4 | 0.441 |  |  |  |  | EC50 (HIV-1 (IIIB); [8]): 1.73 nM; CC50 at 5 days [1]: 16700 nM
O=C(NCc1ccc(F)c(Cl)c1F)c1cn2c(c(O)c1=O)C(=O)N1CC2CCc2cc(F)ccc21 (stereo not shown) [Example 68, N-(3-chloro-2,4-difluorobenzyl)-2-fluoro-7-hydroxy-6,8-dioxo-6,8,13,14-tetrahydro-12H-5,12-methanobenzo[e]pyrido[1,2-a][1,4]diazonine-9-carboxamide] | 1.17 | 0.279 |  |  |  |  | EC50 (HIV-1 (IIIB); [8]): 1.2 nM; CC50 at 5 days [1]: 3580 nM
O=C(NCc1c(F)cc(F)cc1F)c1cn2c(c(O)c1=O)C(=O)N1CC[C@@H](O)CC[C@H]2C1 [Example 83-1, (5S,8S)-5,13-dihydroxy-1,12-dioxo-N-(2,4,6-trifluorobenzyl)-1,3,4,5,6,7,8,12-octahydro-2,8-methanopyrido[1,2-a][1,4]diazecine-11-carboxamide] | 7.08 | 8.19 |  |  |  |  | EC50 (HIV-1 (IIIB); [8]): 39 nM; CC50 at 5 days [1]: > 50000 nM
C[C@@H]1CC[C@H]2C[C@@]23CN1C(=O)c1c(O)c(=O)c(C(=O)NCc2c(F)cc(F)cc2F)cn13 [Example 150, (1aS,4R,11aS)-7-hydroxy-4-methyl-6,8-dioxo-N-(2,4,6-trifluorobenzyl)-1a,2,3,4,6,8-hexahydro-1H-5,11a-methanocyclopropa[h]pyrido[1,2-a][1,4]diazonine-9-carboxamide] | 4.41 | 0.171 |  |  |  |  | EC50 (HIV-1 (IIIB); [8]): 1.98 nM; CC50 at 5 days [1]: 8490 nM
O=C(NCc1ccc(F)c(Cl)c1F)c1cn2c(c(O)c1=O)C(=O)N1CC2CCc2cc(F)c(F)cc21 (stereo not shown) [Example 69, N-(3-chloro-2,4-difluorobenzyl)-2,3-difluoro-7-hydroxy-6,8-dioxo-6,8,13,14-tetrahydro-12H-5,12-methanobenzo[e]pyrido[1,2-a][1,4]diazonine-9-carboxamide] | 1.06 | 0.199 |  |  |  |  | EC50 (HIV-1 (IIIB); [8]): 1.95 nM; CC50 at 5 days [1]: 36700 nM

From patent US12227520B2 (priority 2019, dated 2025)
